Data as given in the CheMixHub viscosity set.

Assay: xn = mol fraction of the nth substance listed

N#Cc1ccccc1 + CO
Conditions	viscosity [mPa·s]
303 K, 100 kPa, x1 = 0.0991	0.6312
303 K, 100 kPa, x1 = 0.2405	0.7232
303 K, 100 kPa, x1 = 0.3585	0.7886
303 K, 100 kPa, x1 = 0.4974	0.8399
303 K, 100 kPa, x1 = 0.6272	0.9121
303 K, 100 kPa, x1 = 0.7094	0.9522
303 K, 100 kPa, x1 = 0.8023	0.9912
303 K, 100 kPa, x1 = 0.897	1.035
303.15 K, 101.33 kPa, x1 = 0.0854	0.562
303.15 K, 101.33 kPa, x1 = 0.1569	0.603
303.15 K, 101.33 kPa, x1 = 0.2408	0.652
303.15 K, 101.33 kPa, x1 = 0.4349	0.763
303.15 K, 101.33 kPa, x1 = 0.5335	0.82
303.15 K, 101.33 kPa, x1 = 0.6304	0.875
303.15 K, 101.33 kPa, x1 = 0.7155	0.926
303.15 K, 101.33 kPa, x1 = 0.8439	1.011
303.15 K, 101.33 kPa, x1 = 0.9059	1.061
308 K, 100 kPa, x1 = 0.0991	0.5712
308 K, 100 kPa, x1 = 0.2405	0.6523
308 K, 100 kPa, x1 = 0.3585	0.7123
308 K, 100 kPa, x1 = 0.4974	0.7652
308 K, 100 kPa, x1 = 0.6272	0.8012
308 K, 100 kPa, x1 = 0.7094	0.8307
308 K, 100 kPa, x1 = 0.8023	0.8716
308 K, 100 kPa, x1 = 0.897	0.9146
308.15 K, 101.33 kPa, x1 = 0.0854	0.525
308.15 K, 101.33 kPa, x1 = 0.1569	0.562
308.15 K, 101.33 kPa, x1 = 0.2408	0.608
308.15 K, 101.33 kPa, x1 = 0.4349	0.709
308.15 K, 101.33 kPa, x1 = 0.5335	0.761
308.15 K, 101.33 kPa, x1 = 0.6304	0.811
308.15 K, 101.33 kPa, x1 = 0.7155	0.859
308.15 K, 101.33 kPa, x1 = 0.8439	0.938
308.15 K, 101.33 kPa, x1 = 0.9059	0.985
313 K, 100 kPa, x1 = 0.0991	0.5056
313 K, 100 kPa, x1 = 0.2405	0.5595
313 K, 100 kPa, x1 = 0.3585	0.6235
313 K, 100 kPa, x1 = 0.4974	0.6856
313 K, 100 kPa, x1 = 0.6272	0.7325
313 K, 100 kPa, x1 = 0.7094	0.7731
313 K, 100 kPa, x1 = 0.8023	0.8134
313 K, 100 kPa, x1 = 0.897	0.8658

N#Cc1ccccc1 + CCCO
viscosity [mPa·s], 101.33 kPa
Conditions	x1 = 0.1072	x1 = 0.2174	x1 = 0.2995	x1 = 0.4082	x1 = 0.5248	x1 = 0.5951	x1 = 0.6992	x1 = 0.7547	x1 = 0.9108
303.15 K	1.447	1.31	1.222	1.138	1.096	1.079	1.066	1.071	1.094
308.15 K	1.308	1.19	1.113	1.037	1.006	0.994	0.986	0.991	1.018
313.15 K	1.187	1.082	1.017	0.955	0.93	0.918	0.913	0.919	0.951

C1CC[C@H]2CCCC[C@@H]2C1 + O=C1CCCCC1
viscosity [mPa·s], 101.3 kPa
Conditions	293.15 K	303.15 K
x2 = 0.05	2.114	1.758
x2 = 0.15	2.103	1.744
x2 = 0.2415	2.105	1.737
x2 = 0.3447	2.119	1.737
x2 = 0.4511	2.147	1.744
x2 = 0.5088	2.168	1.75
x2 = 0.6731	2.253	1.784
x2 = 0.6779	2.256	1.785
x2 = 0.7761	2.326	1.815
x2 = 0.8609	2.397	1.848
x2 = 0.9315	2.466	1.88

CCCOCCO + CCCCCO
298.15 K, 101.33 kPa
Conditions	viscosity [mPa·s]
x1 = 0.0215	3.463
x1 = 0.0339	3.418
x1 = 0.0569	3.355
x1 = 0.0878	3.254
x1 = 0.1148	3.179
x1 = 0.1461	3.103
x1 = 0.1776	3.025
x1 = 0.2194	2.928
x1 = 0.2669	2.847
x1 = 0.327	2.776
x1 = 0.3773	2.72
x1 = 0.4289	2.667
x1 = 0.4842	2.61
x1 = 0.4911	2.608
x1 = 0.5387	2.574
x1 = 0.5721	2.548
x1 = 0.61	2.524
x1 = 0.6569	2.493
x1 = 0.7066	2.458
x1 = 0.7368	2.441
x1 = 0.7698	2.426
x1 = 0.8114	2.404
x1 = 0.8483	2.389
x1 = 0.8888	2.374
x1 = 0.9244	2.363
x1 = 0.963	2.353
x2 = 0.0102	2.35
